Assays:
liver ApoB mRNA = assay: Liver ApoB mRNA knockdown by 1:57 SNALP with APOB siRNA in mice; format: in vivo, mouse; conditions: for ApoB silencing activity (liver ApoB mRNA): 6:1 L:D, IV 0.1 mg/kg; for ApoB knockdown: similar study with 1:57 SNALP containing C2-TLinDMA (Example 16)
Protocol: Each SNALP formulation was administered by intravenous (IV) injection at 0.1 mg/kg into female Balb/c mice (n=3 per group). Plasma total cholesterol and/or liver ApoB mRNA levels were evaluated at 48 hours after SNALP administration. For dose response studies, SNALP formulations were administered by IV injection at 0.01 mg/kg, 0.03 mg/kg, or 0.1 mg/kg into female Balb/c mice (n=3 per group). Liver ApoB mRNA levels were evaluated at 48 hours after SNALP administration.
1:57 SNALP formulations containing encapsulated APOB siRNA at a 6:1 lipid:drug (L:D) ratio were prepared with the following cationic lipids: (1) DLinDMA; (2) Linoleyl/Linolenyl DMA (“Lin/LenDMA”); (3) DPanDMA; (4) TLinDMA; (5) Linoleyl/C6:0 DMA (“Lin/6:0”); (6) C2-DPanDMA; (7) DLin-C2K-Pip (30H); and (8) DHep-C2K-DMA.
(§1) Each SNALP formulation was administered by intravenous (IV) injection at 0.1 mg/kg into female Balb/c mice (n=3 per group). Livers were colleted at 48 hours after SNALP administration and liver ApoB mRNA levels were evaluated by performing an ApoB/GAPDH QG assay. Table 2 provides a characterization of the SNALP formulations used in this in vivo study.
In another study, 1:57 SNALP formulations containing encapsulated APOB siRNA at a 6:1 L:D ratio were prepared with the following cationic lipids: (1) DLinDMA; (2) C2-DPanDMA; (3) DPan-C2K-DMA; (4) DPan-C3K-DMA; and (5) DPan-C1K6-DMA.
as §1, with “3” for “2”
For dose response studies, SNALP formulations were administered by IV injection at 0.01 mg/kg, 0.033 mg/kg, or 0.1 mg/kg into female Balb/c mice (n=3 per group). Liver ApoB mRNA levels were evaluated at 48 hours after SNALP administration by a branched DNA assay (QuantiGene assay) to assess ApoB mRNA relative to the housekeeping gene GAPDH.

[1] = Characterization of SNALP formulations (size, polydispersity, encapsulation); format: physicochemical; conditions: Table 5; for Initial Encaps. (%): 7:54 SNALP (PEG750-C-DMA 6.76 | cationic 54.06 | Chol 32.43 | DPPC 6.75 mol %) with PLK-1 siRNA; for Finished Product Encaps. (%) / Finished Product Poly / Finished Product Z-Avg (nm): 7:54 SNALP with PLK-1 siRNA
Protocol: In the context of nucleic acids, full encapsulation may be determined by performing a membrane-impermeable fluorescent dye exclusion assay, which uses a dye that has enhanced fluorescence when associated with nucleic acid. Specific dyes such as OliGreen® and RiboGreen® (Invitrogen Corp.; Carlsbad, Calif.) are available for the quantitative determination of plasmid DNA, single-stranded deoxyribonucleotides, and/or single- or double-stranded ribonucleotides. Encapsulation is determined by adding the dye to a liposomal formulation, measuring the resulting fluorescence, and comparing it to the fluorescence observed upon addition of a small amount of nonionic detergent. Detergent-mediated disruption of the liposomal bilayer releases the encapsulated nucleic acid, allowing it to interact with the membrane-impermeable dye. Nucleic acid encapsulation may be calculated as E=(Io−I)Io, where I and Io refer to the fluorescence intensities before and after the addition of detergent (see, Wheeler et al., Gene Ther., 6:271-281 (1999)). […]
Each SNALP formulation was administered by intravenous (IV) injection at 3 mg/kg into Scid mice containing Hep3B tumors (n=4 per group). Tumor tissue was colleted at 24 hours after SNALP administration and tumor PLK-1 mRNA levels were evaluated by performing a PLK-1/GAPDH QG assay. Table 5 provides a characterization of the SNALP formulations used in this in vivo study.

[2] = TNS assay, apparent pKa of cationic lipid in 1:57 SNALP; conditions: 1:57 SNALP formulation containing encapsulated APOB siRNA
Protocol: 1:57 SNALP formulations containing encapsulated APOB siRNA were prepared as described in Section VI above with the following cationic lipids: (1) DLinDMA; (2) DLenDMA; (3) γ-DLenDMA (“g-DLenDMA”); (4) C2-DLinDAP; (5) DLinPip (4-OH); (6) DLinPip; (7) DLinPip (3-OH); (8) DLinDEA; (9) DDocDMA; (10) DAraDMA; (11) TLinDMA; (12) DLin-C2K Pip (30H); (13) DHep-C2K-DMA; (14) DPanDMA; (15) C2-DPanDMA (“DPan-C2-DMA”); (16) DPan-C2K-DMA; (17) DPan-C3K-DMA; (18) DPan-K6-DMA (“DPan-C1K6-DMA”); and (19) C2-TLinDMA.
The apparent pKa of the cationic lipids present in these SNALP formulations was determined using a 2-(p-toluidinyl)-naphthalene-6-sodium sulfonate (TNS) assay. TNS is a negatively-charged indicator of membrane potential that is electrostatically attracted to positively charged membranes (see, Bailey and Cullis, Biochemistry, 33 12573-80 (1994)). Subsequent adsorption to the lipid membrane results in the immediate environment of the TNS becoming more lipophilic, removing the water molecules that otherwise quench TNS fluorescence. As a result, TNS measures the surface potential of the particle, wherein the more positive the surface potential, the greater the level of fluorescence. The surface pKa values of each SNALP formulation were determined by varying the local pH in the presence of TNS. By plotting fluorescence versus pH, the pKa of the cationic lipid can be estimated in the particle as the pH where fluorescence equals 50% of total fluorescence.

[3] = Example 16 second study, FIG. 9, 1:57 SNALP, female Balb/c mice, 48 hours
[4] = Example 16, FIG. 8, 1:57 SNALP, female Balb/c mice, 48 hours, ApoB/GAPDH QG assay

Row | Structure (SMILES) | Initial Encaps. (%) [1] | Finished Product Encaps. (%) [1] | Finished Product Poly [1] | Finished Product Z-Avg (nm) [1] | pKa [2] | other results
1 | CCCCC/C=C\C/C=C\C/C=C\C/C=C\CCCCOCC(CN(C)C)OCCCC/C=C\C/C=C\C/C=C\C/C=C\CCCCC (stereo not shown) [DAraDMA, 1,2-Diarachidonyloxy-(N,N-dimethyl)-propyl-3-amine] |  |  |  |  | ~5.65 | 
2 | CC(C)CCCC(C)CCCC(C)CCCC(C)CCC1(CCC(C)CCCC(C)CCCC(C)CCCC(C)C)OCC(CN(C)C)CO1 (stereo not shown) [DPan-C1K6-DMA] | 71% | 99% | 0.06 | 80 nm | ~5.5 | 
3 | CCCCC/C=C\C/C=C\CCCCCCCCOCC(COCC(CN(C)C)OCCCCCCCC/C=C\C/C=C\CCCCC)OCCCCCCCC/C=C\C/C=C\CCCCC (stereo not shown) [TLinDMA, 1-(2,3-linoleyloxypropoxy)-2-(linoleyloxy)-(N,N-dimethyl)-propyl-3-amine] | 70% | 100% | 0.07 | 126 nm | ~5.35 | ApoB silencing activity (liver ApoB mRNA) (liver ApoB mRNA; [4]): silencing activity that was comparable to DLinDMA
4 | CCCCCCCC/C=C/CCCCCCCC1(CCCCCCC/C=C/CCCCCCCC)OCC(CCN(C)C)O1 (stereo not shown) [DHep-C2K-DMA] |  |  |  |  | ~6.05 | ApoB silencing activity (liver ApoB mRNA) (liver ApoB mRNA; [4]): comparable to DLinDMA with respect to silencing activity
5 | CCCCC/C=C\C/C=C\CCCCCCCCOCC(COCC(CCN(C)C)OCCCCCCCC/C=C\C/C=C\CCCCC)OCCCCCCCC/C=C\C/C=C\CCCCC (stereo not shown) [Compound C2-TLinDMA] |  |  |  |  | ~5.85 | ApoB knockdown (liver ApoB mRNA): 49%
6 | CC(C)CCCC(C)CCCC(C)CCCC(C)CCC1(CCC(C)CCCC(C)CCCC(C)CCCC(C)C)OCC(CCN(C)C)O1 (stereo not shown) [DPan-C2K-DMA] | 84% | 100% | 0.08 | 76 nm | ~5.95 | ApoB silencing activity (liver ApoB mRNA) (liver ApoB mRNA; [3]): more potent compared to DLinDMA
7 | CC/C=C\C/C=C\C/C=C\CCCCCCCCC1(CCCCCCCC/C=C\C/C=C\C/C=C\CC)OCC(CCN(C)C)O1 (stereo not shown) [DLen-C2K-DMA] |  |  |  |  |  | liver ApoB mRNA knockdown activity (liver ApoB mRNA; Example 17, FIG. 10, 1:57 SNALP, IV 0.01, 0.033 or 0.1 mg/kg, female Balb/c mice, 48 hours, QuantiGene assay vs GAPDH): considerable potency in silencing ApoB mRNA expression
8 | CC/C=C\C/C=C\C/C=C\CCCCCCCCOC(COCCCCCCCC/C=C\C/C=C\CCCCC)CN(C)C (stereo not shown) [Linoleyl/Linolenyl DMA] |  |  |  |  |  | liver ApoB mRNA knockdown activity (silencing ApoB expression) (liver ApoB mRNA; Example 14, FIGS. 3-6, 1:57 SNALP with APOB siRNA, IV 0.1 mg/kg (dose response 0.01, 0.03, 0.1 mg/kg), female Balb/c mice, 48 hours): greater ApoB silencing activity compared to a SNALP formulation containing DLinDMA; ApoB silencing activity (liver ApoB mRNA) (liver ApoB mRNA; [4]): more potent silencing activity than DLinDMA
9 | CCCCC/C=C\C/C=C\C/C=C\CCCCCC1(CCCCC/C=C\C/C=C\C/C=C\CCCCC)OCC(CCN(C)C)O1 (stereo not shown) [g-DLen-C2K-DMA] |  |  |  |  |  | KD50 value (liver ApoB mRNA; Example 17, FIG. 10, liver ApoB mRNA knockdown dose response): identical KD50 value compared to a SNALP formulation containing C2K

Second part, led by results:

Row | Initial Encaps. (%) [1] | Finished Product Encaps. (%) [1] | Finished Product Poly [1] | Finished Product Z-Avg (nm) [1] | pKa [2] | Structure (SMILES) | other results
10 | 86% | 100% | 0.06 | 81 nm | ~6.25 | CC(C)CCCC(C)CCCC(C)CCCC(C)CCC1(CCC(C)CCCC(C)CCCC(C)CCCC(C)C)OCC(CCCN(C)C)O1 (stereo not shown) [DPan-C3K-DMA] | ApoB silencing activity (liver ApoB mRNA) (liver ApoB mRNA; [3]): more potent compared to DLinDMA
11 |  |  |  |  | ~5.65 | CC/C=C\C/C=C\C/C=C\C/C=C\C/C=C\C/C=C\CCCOCC(CN(C)C)OCCC/C=C\C/C=C\C/C=C\C/C=C\C/C=C\C/C=C\CC (stereo not shown) [DDocDMA, 1,2-Didocosahexaenyloxy-(N,N-dimethyl)-propyl-3-amine] | 
12 | 56% | 98% | 0.05 | 84 nm |  | CCCCC/C=C\C/C=C\CCCCCCCCC1(CCCCCCCC/C=C\C/C=C\CCCCC)OCC(CN(C)C)O1 (stereo not shown) [DLin-C1K-DMA, reference compound] | 
13 |  |  |  |  | ~6.05 | CCCCC/C=C\C/C=C\CCCCCCCCC1(CCCCCCCC/C=C\C/C=C\CCCCC)OCC(CCN2CCCC(O)C2)O1 (stereo not shown) [DLin-C2K Pip (30H)] | 
14 | 75% | 98% | 0.08 | 74 nm |  | CCCCC/C=C\C/C=C\CCCCCCCCOCC(CN(C)C)OCCCCCCCC/C=C\C/C=C\CCCCC (stereo not shown) [DLinDMA, 1,2-dilinoleyloxy-N,N-dimethylaminopropane, reference compound] | ApoB knockdown (liver ApoB mRNA): 25%

— patent US9018187B2, “Cationic lipids and methods for the delivery of therapeutic agents” (Protiva Biotherapeutics, Inc., priority 2009, dated 2015)
